Data as given in patent US5104859A, “Continuous administration of adenosine to reduce pulmonary vascular resistance” (priority 1990, dated 1992).

Experiments:
[1] = Clinical observations during and after cardiopulmonary bypass
Procedure: (§1) During cardiopulmonary bypass (CPB), mean arterial blood pressure (MABP) above 70 mmHg was treated with the vasodilator sodium nitroprusside (SNP), except in the final phase or rewarming. CPB was performed with SARN roller pump and a Shiley oxygenator (100A) primed with 2000 ml crystalloid solution (75 mg heparin). The perfusion rate was kept at approximately […] body surface. Moderate hypothermia (25° C.) was induced. Cardioplegia was obtained with Ringer's solution (with added potassium up to 20 mM/1). Heparin (3 mg/kg) was administered as a bolus injection before cannulation. The heparin effect was controlled by measurements of activated clotting time. (Hemocron® Int. Technidyne Corp, USA). […] At the termination of CPB, the heparin effect was antagonized with protamine (c. 1.3 mg/mg heparin). ACT was checked 10-20 min after the protamine injection. ACT values 120 sec were considered satisfactory.
Platelet count (Linson 431 A cell counter) and hematocrit were determined in arterial samples before anesthesia, after thoracotomy, during CPB at 10, 20, 40, 60, 80 and 100 min, 30 min after CPB and on the postoperative day. Platelet counts were expressed in percentage of preanesthesia levels and were corrected for hemodilution. MABP was monitored continuously via a catheter introduced in the radial artery. All patients received hypertonic mannitol (1-1.5 g/kg) during CPB and urine production was calculated as ml/.min of CPB (Table VI).
Postoperative bleeding was measured as the blood loss from the tube drainage from the end of operation until the postoperative morning.
In six cases the plasma adenosine levels were determined by high performance liquid chromatography (HPLC) (Fredholm and Sollevi, J. Physiol. (London), 313: 351-67 (1981) in arterial and in venous (venous lines to the oxygenator) blood. The adenosine metabolites inosine, hypoxanthine and uric acid were also determined by HPLC. The samples were collected as previously described (Sollevi, Acta. Physiol. Scand., 121: 165-72 (1984) at the intervals of 10, 20, 40 and 80 minutes during CPB and 20 minutes after CPB.
(§2) Statistical significance (controls v. adenosine group) was determinted with Student's t-test for unpaired data. For significance within the groups the Wilcoxon Rank Sum test was used. p […] 0.05 was regarded as significant.

[2] = test system: central hemodynamics; experiment: Per cent change of hemodynamics: adenosine, SNP and TNG induced controlled hypotension during cerebral aneurysm surgery; assay type: in vivo, human
Procedure: One hour before the operation the patients were premedicated orally with diazepam (10-20 mg.) Atropine (0.5 mg) and droperidol (0.1 mg. per kg.) were given intravenously before induction of anesthesia. Induction was started with thiopental (5 mg. per kg) followed by phenoperidine (1-2 mg), a synthetic opiate with pharmacodymanics resembling fentanyl but with a longer duration of action and 1/10 of its analgesic potency.
Pancuronium bromide (0.1 mg per kg) was given to facilitate endotracheal intubation. Anesthesia was maintained by supplementary doses of phenoperidine and droperidol, as required. […] Phenoperidine was supplemented regularly to prevent the blood pressure from exceeding the preanesthetic level (approx. 1 mg/30-60 min). Controlled hyperventilation was employed with a humidified gas mixture of 60% N2 O in oxygen to maintain PaCO2 values at approximately 30 mmHg (±1.5/SEM). Mannitol (1-1.5 g. per kg) was given routinely at the start of the operation (e.g., 1-2 hours prior to the controlled hypotension). The patients were operated on in the horizontal supine position.
A 1.2-mm plastic cannula was introduced into the left radial artery to monitor systemic arterial blood pressure (MABP) and collect arterial blood. A balloon-tipped, flow-directed, quadruple lumen Swan-Ganz catheter (Model 93A-831-7.5 F, VIP) was inserted percutaneously via the left basilic vein, and its correct position in the pulmonary artery was determined by pressure tracings. The catheter was used for the monitoring of mean right atrial pressure (RAP), mean pulmonary artery pressure (PAP), and mean pulmonary capillary wedge pressure (PCWP) for the determination of cardiac output and collection of mixed venous blood and for the infusion of adenosine. Another plastic cannula was introduced percutaneously, in a retrograde direction, into the right jugular bulb for the collection of blood. The correct position was verified by x-ray.
The ECG was monitored with a standard chest (V5) lead. Heart rate was determined from the R-R interval. Blood pressures were measured by transducers placed at the midthoracic level. Cardiac output (QT) was determined in triplicate according to the thermodilution technique with a cardiac output computer (Edwards Lab, model 9510). Isotonic glucose, 10 ml at 1° C., was used as a thermal indicator. The ECG, heart rate, blood pressures, and thermodilution curves were recorded on a Grass® polygraph.
The infusion was started at a rate of 0.01 mg. per kg. per minute, which was doubled at 15 second intervals until the desired MABP level of 40-50 mmHg was reached. […] Serum creatinine was determined before and on two consecutive days after operation. The standard ECG was recorded the day before and the day after operation.
Subsequent to the tests described above, a 20 mM solution of adenosine in isotonic saline was administered to 50 surgical patients employing techniques similar to those described, except that pretreatment with dipyridamole was omitted.

[3] = test system: pulmonary vascular resistance
[4] = test system: atrio-ventricular (A-V) node; conditions: through blockage of the A-V node; cited from earlier work
[5] = test system: platelets; experiment: Platelet protection during cardiopulmonary bypass; assay type: in vivo, human
Procedure: Twenty-five patients scheduled for coronary artery bypass surgery were randomly assigned to two groups--one with adenosine infusion (n=13) and the other with placebo infusion (n=12).
Intravenous anesthesia was used, either high-dose fentanyl (100-150 ug/kg) or balanced anesthesia (thiopental, fentanyl, diazepam and N2 O/O2.
as §1
Platelet count (Linson 431 A cell counter) and hematocrit were determined in arterial samples before anesthesia, after thoracotomy, during CPB at 10, 20, 40, 60, 80 and 100 min, 30 min after CPB and on the postoperative day. Platelet counts were expressed in percentage of preanesthesia levels and were corrected for hemodilution. MABP was monitored continuously via a catheter introduced in the radial artery. All patients received hypertonic mannitol (1-1.5 g/kg) during CPB and urine production was calculated as ml/.min of CPB (Table VI). […]
as §2

For `Nc1ncnc2c1ncn2[C@@H]1O[C@H](CO)[C@@H](O)[C@H]1O` [adenosine], the “systemic vasodilation at chosen infusion rate” value ([1]; 100 ug/kg/min, highest such rate in pilot cases) was “did not induce systemic vasodilation”, the Preoperative urine production ([1]; 0.1 mg per kg per min, with range in parentheses) was 4.1 (1.1-9.5) ml/min. CPB and the “urine production during CPB” value ([1]; 500 ml/h in controls, p<0.01) was 250 mL/h. The “MABP during CPB vs placebo” value ([1]; human, in vivo) was “did not differ significantly”, the “postoperative blood loss vs control” value ([1]; human, in vivo) was “did not differ” and the “MABP after CPB” value ([1]; no intergroup difference at end of operation) was “slightly lower MABP”. For the same compound, the “patients with transient creatinine elevation” value ([1]; one control patient) was “two”, the “patients requiring vasodilator treatment” value ([1]; placebo: seven required nitroprusside) was “No patient” and the “transient elevation of serum creatinine above normal range” value ([1]; two postoperative days) was 10-20%. The “HR, change from control” value ([2]; Table IV, n = 10) was “+9 Per Cent from Control”, the “MABP, change from control” value ([2]; Table IV, n = 10) was -43 Per Cent from Control and the “PAP, change from control” value ([2]; Table IV, n = 10) was “+15 Per Cent from Control”. For the same compound, the “PCWP, change from control” value ([2]; Table IV, n = 10) was “+14 Per Cent from Control”, the “PVR, change from control” value ([2]; Table IV, n = 10) was -15 Per Cent from Control and the “QT (cardiac output), change from control” value ([2]; Table IV, n = 10) was “+44 Per Cent from Control”. For the same compound, the “RAP, change from control” value ([2]; Table IV, n = 10) was “+6 Per Cent from Control”, the “SVR, change from control” value ([2]; Table IV, n = 10) was -61 Per Cent from Control and the “oxygen tissue pressures vs nitroprusside” value ([2]; controlled hypotension) was “better preserves oxygen tissue pressures”. The “pulmonary vascular resistance in induced pulmonary hypertension” value ([3]; intravenous, hypoxic ventilation during anesthesia) was “marked reduction”, the “systemic vasodilator effects, cardiac output, arterial oxygen at doses lowering pulmonary resistance” value ([3]; pig, in vivo) was “commonly do not result in detectable vasodilator effects or effects on cardiac output or arterial oxygen function” and the “heart block” value [4] was “produce heart block”. For the same compound, the “intergroup difference in platelet counts” value ([5]; 60 min to end of CPB and 30 min after CPB) was “significant intergroup difference in platelet counts”, the “infusion rate effective in protecting platelets” value ([5]; cardiopulmonary bypass) was “about 100 ug/kg/min” and the “Platelet Count; % of Awake Count” value ([5]; during CPB, 10 minutes) was 96 % of Awake Count. For the same compound, the “Platelet Count; % of Awake Count” value ([5]; during CPB, 20 minutes) was 87 % of Awake Count, the “Platelet Count; % of Awake Count” value ([5]; during CPB, 40 minutes) was 85 % of Awake Count and the “Platelet Count; % of Awake Count” value ([5]; during CPB, 60 minutes) was 91 % of Awake Count. The “Platelet Count; % of Awake Count” value ([5]; during CPB, 80 minutes) was 100 % of Awake Count, the “Platelet Count; % of Awake Count” value ([5]; during CPB, 100 minutes) was 97 % of Awake Count and the “initial platelet reduction” value ([5]; during adenosine infusion) was “small, and was significant only at 20 and 40 minutes on CPB”. For the same compound, the “Platelet Count; % of Awake Count” value ([5]; post CPB, 30 minutes) was 88 % of Awake Count and the “Platelet Count; % of Awake Count” value ([5]; post CPB, 24 hours) was 60 % of Awake Count.
